These results are taken from US5541181A, “Compound produced by a strain of micromonospora” (Bristol-Myers Squibb Company, priority 1994, dated 1996).

SMILES strings stand for the structures. In brackets after ≈: the same amount, converted by molar mass. Read-outs that look alike come from different tables or passages of the source. Where only a bound is given, the exact number is not on record here.

For one series, the system named is HCT-116 cells. The experiment in a line: In vitro cytotoxicity, HCT-116 (human colon carcinoma), neutral red, 72 hours. It is filed as cell-based. The note with it: for IC50: Homo sapiens, HCT-116, 72 hours; for cytotoxicity: HCT-116, compared with BU-4664L. The procedure:
(§1) In Vitro Cytoxicity. B16-F10 (murine melanoma) and Moser (human colorectal carcinoma) were grown in Eagle's minimum essential medium (Nissui) supplement with fetal calf serum (FCS, 10%) and kanamycin (60 μg/ml), HCT-116 (human colon carcinoma) cells were grown in McCoy's 5A Medium (Gibco) supplemented with FCS (10%), penicillin (100 u/ml) and streptomycin (100 μg/ml), and K562 (human myelogenous leukemia) were in RPM 11640 medium supplemented with FCS (10%), penicillin (100 u/ml) and streptomycin (100 μg/ml) at 37° C. under humidified atmosphere in a CO2 incubator. The exponentially growing B16-F10, Moser, K562 and HCT-116 cells were harvested, counted and suspended in the culture media at 1.5×10^4, 6×10^4, 3×10^4 and 8×10^4 cells/ml, respectively. The test materials were planted into the wells of 96 or 24-well tissue culture plate and for 72 hours. The cytotoxic activities were colorimetrically determined at 540 nm after staining viable cells with neutral red solution.

Another series relates to B16-F10 cells. Description: In vitro cytotoxicity, B16-F10 (murine melanoma), neutral red, 72 hours. In kind it is cell-based. The following applies: for IC50: Mus musculus, B16-F10, 72 hours; for cytotoxicity: B16-F10, compared with BU-4664L. On the procedure: as §1
In another series the target is T1, 5-lipoxygenase (5-LPO) (Rattus norvegicus, UniProt P12527).
T1 construct: produced in a cell-free extract of rat basophilic leukemia cells (RBL-1 cells, ATCC CRL 1378); endogenous in cells; host or cells: RBL-1 cells (rat basophilic leukemia), ATCC CRL 1378; cell-free extract
T1 sequence (P12527 1-673): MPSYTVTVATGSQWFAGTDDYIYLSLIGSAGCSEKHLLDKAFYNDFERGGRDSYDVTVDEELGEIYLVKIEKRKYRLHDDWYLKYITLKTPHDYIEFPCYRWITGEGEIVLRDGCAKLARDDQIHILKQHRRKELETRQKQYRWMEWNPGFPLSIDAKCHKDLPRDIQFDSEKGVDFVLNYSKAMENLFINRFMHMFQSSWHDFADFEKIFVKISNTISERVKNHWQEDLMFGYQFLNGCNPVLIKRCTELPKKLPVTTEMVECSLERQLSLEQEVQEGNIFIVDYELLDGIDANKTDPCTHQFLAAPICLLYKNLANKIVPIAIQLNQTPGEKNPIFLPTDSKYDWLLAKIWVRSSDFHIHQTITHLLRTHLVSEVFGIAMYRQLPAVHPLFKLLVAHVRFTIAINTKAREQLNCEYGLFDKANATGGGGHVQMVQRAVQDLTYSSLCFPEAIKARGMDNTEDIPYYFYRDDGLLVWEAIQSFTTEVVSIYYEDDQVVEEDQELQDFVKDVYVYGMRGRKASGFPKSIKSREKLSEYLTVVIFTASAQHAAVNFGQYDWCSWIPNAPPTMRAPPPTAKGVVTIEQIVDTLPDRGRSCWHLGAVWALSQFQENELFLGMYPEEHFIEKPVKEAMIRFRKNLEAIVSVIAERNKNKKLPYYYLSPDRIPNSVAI
The experiment in a line: 5-Lipoxygenase (5-LPO) inhibitory activity: 5-HETE produced in a cell-free extract of rat basophilic leukemia (RBL-1) cells. In kind it is biochemical. On the procedure: 20-Jar Fermentation. A 5-ml portion of the seed culture was transferred into a 500-ml Erlenmeyer flask containing 100 ml of the seed medium described above. Fermentation was carried out for 3 days at 28° C. and 200 rpm. This seed culture (500 ml) was inoculated into a 20-liter jar fermentor containing 12 liters of the production medium composed of soluble starch 2%, Pharmamedia (Trader's Protein) 1%, yeast extract 0.2%, ZnSO4 ·7H2 O 0.003% and CaCO3 0.4% (pH 7.0) and fermented for 3 days under the following conditions: temperature, 28° C.; aeration, 10 liters/minute; internal pressure, 0.5 kg/cm^2; agitation, 250 rpm. For preparation of an assay sample, a 3-ml of the whole broth was extracted with the same volume of n-butanol. After centrifugation, the solvent layer was evaporated to dryness and dissolved into the same volume of 10% dimethylsulfoxide (DMSO) solution. The solution was used as an assay sample.

In a further series the test system is Moser cells. Description: In vitro cytotoxicity, Moser (human colorectal carcinoma), neutral red, 72 hours. It is filed as cell-based. The procedure:
as §1

The subject of the next series is K562 cells. Description: In vitro cytotoxicity, K562 (human myelogenous leukemia), neutral red, 72 hours. It is filed as cell-based. The following applies: K562, 72 hours. The procedure: as §1
For series [1], the system named is K562, B16-F10 and Moser cells. Description: In vitro cytotoxicity, range over K562, B16-F10 and Moser. It is filed as cell-based, murine and human. The following applies: vs K562, B16-F10 and Moser; read-out: IC50 (inhibited growth of tumor cell lines), range. The procedure:
as §1

The nature of the next series: Solubility. In kind it is physicochemical.
The next series relates to P388 leukemia. It is filed as in vivo, mouse. The following applies: ip; for T/C: ≥ 125 significantly active; for Avg Weight change on day 4: mouse, in vivo. On the procedure:
(§2) B16 melanoma was intraperitoneally (ip) inoculated with 0.5 ml of 10% brei per male BDF1 mouse, and P388 leukemia intraperitoneally inoculated with 10^6 cells per female CDF1 mouse. The test materials were intraperitoneally administered to the tumor-bearing mice by the following treatment schedules: once daily on days 1 to 3 (Q1D×3), once a day on days 1, 4, and 7 (Q3D×3) and once a day on days 1, 5 and 9 (Q4D×3).
(§3) The in vivo antitumor activity was determined in tumor-bearing mice.

The subject of another series is B16 melanoma. In kind it is in vivo, mouse. The following applies: ip; for MST (Median survival time) / T/C: Q4D × 3; for Avg Weight change on day 5: mouse, in vivo. The procedure: as §2, §3
The mark [2] stands for this setting: Table 8, rat 5-LPO, read-out: IC50 (5-Lipoxygenase Inhibitory Activity).

As for `CC(C)=CCC/C(C)=C/CC/C(C)=C/CN1c2cc(O)cc(O)c2NC(=O)c2cccc(O)c21` [BU-4664L, 5-farnesyl-4,7,9-trihydroxy dibenzo[b,e][1,4]diazepin-11-one], the IC50 – broadly, the concentration that gives 50% inhibition – in the series on HCT-116 cells was 2.6 µg/mL (≈ 5.62 µM); in the series with B16-F10 cells it was 1.9 µg/mL (≈ 4.11 µM); on 5-lipoxygenase (5-LPO) (rat 5-LPO, read-out: IC50 (5-LPO inhibitory activity)), 1.7 µM; with Moser cells, 18 µg/mL (≈ 38.9 µM); in the series on K562 cells, 1.1 µg/mL (≈ 2.38 µM); in [1] it was 1.1 to 18 µg/mL (≈ 2.38 to 38.9 µM). Moreover, the “5-LPO inhibitory activity” value on 5-lipoxygenase (5-LPO) (rat 5-LPO) is recorded as “good 5-LPO inhibitory activity”. Also, the solubility entry in the series “Solubility” (chloroform) is on record as “slightly soluble”; in the series “Solubility” (dimethyl sulfoxide), “soluble”; in the series “Solubility” (ethanol), “soluble”; in the series “Solubility” (ethyl acetate) it was “soluble”; in “Solubility” (methanol), “soluble”; in the series “Solubility” (n-hexane) it was “insoluble”. Also, the solubility result in the series “Solubility” (water) is recorded as “insoluble”. Also, the “T/C values against P388 leukemia” value in the series on P388 leukemia is “good T/C values”. Further, the “survival time of mice inoculated with P388” value in the series on P388 leukemia is reported as “significant prolongation of the survival time”. The “MST (Median survival time)” value was 12.0 days in the series with P388 leukemia (0.3 mg/kg/day, Q1D × 3); 11.0 days in the series on P388 leukemia (1 mg/kg/day, Q1D × 3); 11.9 days in the series on P388 leukemia (1 mg/kg/day, Q3D × 3); 13.0 days in the series with P388 leukemia (3 mg/kg/day, Q1D × 3); 15.2 days in the series with P388 leukemia (3 mg/kg/day, Q3D × 3); 15.0 days in the series with P388 leukemia (10 mg/kg/day, Q1D × 3). Besides, the “MST (Median survival time)” value in the series on P388 leukemia (10 mg/kg/day, Q3D × 3) is 16.2 days; in the series with P388 leukemia (30 mg/kg/day, Q1D × 3), 16.0 days; with P388 leukemia (30 mg/kg/day, Q3D × 3), 12.5 days; with B16 melanoma (3 mg/kg/day), 16.5 days; in the series with B16 melanoma (10 mg/kg/day), 17.5 days; in the series on B16 melanoma (30 mg/kg/day) it was 17.0 days. Moreover, the T/C (in general, the result in the treated group divided by that in the control group, in per cent) with P388 leukemia (0.3 mg/kg/day, Q1D × 3) is given as 120%; with P388 leukemia (1 mg/kg/day, Q1D × 3), 110%; in the series with P388 leukemia (1 mg/kg/day, Q3D × 3), 119%; in the series on P388 leukemia (3 mg/kg/day, Q1D × 3) it was 130%; in the series with P388 leukemia (3 mg/kg/day, Q3D × 3) it was 152%; in the series on P388 leukemia (10 mg/kg/day, Q1D × 3) it was 150%. Further, the T/C in the series on P388 leukemia (10 mg/kg/day, Q3D × 3) is 162%; with P388 leukemia (30 mg/kg/day, Q1D × 3), 160%; with P388 leukemia (30 mg/kg/day, Q3D × 3), 152%; in the series on B16 melanoma (3 mg/kg/day), 127%; in the series with B16 melanoma (10 mg/kg/day) it was 135%; in the series on B16 melanoma (30 mg/kg/day), 131%. Further, the “Avg Weight change on day 4” value in the series with P388 leukemia (0.3 mg/kg/day) is on record as “+0.5 g”. Further, in the series on B16 melanoma, the “survival time of mice inoculated with B16 melanoma” value was “significant prolongation of the survival time”. Besides, in the series with B16 melanoma (compared with Mitomycin C), the “activity against B16 melanoma in terms of minimum effective dose” value is recorded as “weaker than Mitomycin C”. Moreover, the figures for the “Avg Weight change on day 5” value in the series with B16 melanoma (3 mg/kg/day), with B16 melanoma (10 mg/kg/day) and in the series with B16 melanoma (30 mg/kg/day) were “+0.3 g”, “+0.3 g” and -0.8 g, respectively.

Take `CO[C@@]12[C@H](COC(N)=O)C3=C(C(=O)C(C)=C(N)C3=O)N1C[C@@H]1N[C@@H]12` [Mitomycin C, reference compound]: the “MST (Median survival time)” value with P388 leukemia (0.3 mg/kg/day, Q1D × 3) was determined as 12.5 days; with P388 leukemia (1 mg/kg/day, Q1D × 3) it was 16.0 days; in the series on P388 leukemia (3 mg/kg/day, Q1D × 3) it was 21.0 days; in the series on B16 melanoma (0.5 mg/kg/day), 16.0 days; in the series with B16 melanoma (1 mg/kg/day), 22.5 days; in the series on B16 melanoma (2 mg/kg/day), 26.7 days. Also, the T/C is given as 119% in the series on P388 leukemia (0.3 mg/kg/day, Q1D × 3); 152% in the series with P388 leukemia (1 mg/kg/day, Q1D × 3); 200% in the series on P388 leukemia (3 mg/kg/day, Q1D × 3); 123% with B16 melanoma (0.5 mg/kg/day); 173% in the series with B16 melanoma (1 mg/kg/day); 204% with B16 melanoma (2 mg/kg/day). Further, the figures for the “Avg Weight change on day 4” value in the series with P388 leukemia (0.3 mg/kg/day), in the series with P388 leukemia (1 mg/kg/day) and in the series on P388 leukemia (3 mg/kg/day) were “+0.3 g”, 0.0 g and -1.5 g, respectively. The entries for the “Avg Weight change on day 5” value in the series on B16 melanoma (0.5 mg/kg/day), in the series with B16 melanoma (1 mg/kg/day) and with B16 melanoma (2 mg/kg/day) were “+0.8 g”, “+0.5 g” and “+0.3 g”, respectively.

Consider `CC(=O)Oc1cc(OC(C)=O)c2c(c1)N(C/C=C(\C)CC/C=C(\C)CCC=C(C)C)c1c(OC(C)=O)cccc1C(=O)N2` [Triacetyl BU-4664L], for which the “cytotoxicity” value with HCT-116 cells and in the series on B16-F10 cells was “weaker cytotoxicity” throughout. Besides, the IC50 with HCT-116 cells was 4.4 µg/mL (≈ 7.47 µM); in the series on B16-F10 cells, 2.4 µg/mL (≈ 4.08 µM); on 5-lipoxygenase (5-LPO) (setting [2]), over 34 µM. Also, at 5-lipoxygenase (5-LPO) (rat 5-LPO), the “5-LPO inhibitory activity” value is listed as “seemed to be devoid of 5-LPO inhibitory activity”.

As for `COc1cc(OC)c2c(c1)N(C/C=C(\C)CC/C=C(\C)CCC=C(C)C)c1c(OC)cccc1C(=O)N2` [Trimethyl BU-4664L], the “cytotoxicity” value with HCT-116 cells and in the series on B16-F10 cells was “weaker cytotoxicity” throughout. The IC50 in the series on HCT-116 cells was 12.5 µg/mL (≈ 24.8 µM); in the series on B16-F10 cells it was 21 µg/mL (≈ 41.6 µM); at 5-lipoxygenase (5-LPO) (setting [2]), over 39.6 µM. For the same compound, at 5-lipoxygenase (5-LPO) (rat 5-LPO), the “5-LPO inhibitory activity” value is given as “seemed to be devoid of 5-LPO inhibitory activity”.
